These compounds were tested against SOS1/KRAS WT (Homo sapiens (Human), UniProt Q07889) (assay: SOS1/KRAS WT HTRF binding assay (FRET-based protein-protein interaction)). Details: inhibition of His6-SOS1 (aa564-1049, 40 nM) binding to GST-KRAS-WT (aa1-188, 40 nM); at least two independent replicates.
Summary of the method: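 GST-KRAS WT (aa1-188, 40 nM) and His6-SOS1 exchange domain (aa564-1049, 40 nM) were incubated 60 min at room temperature with compound dose response in HEPES pH7.3 buffer with 10 mM EDTA and 100 mM KF. Anti-GST-Eu(K)/anti-6His-XL665 HTRF was read after 4 hr, and IC50 came from a four-parameter fit (≥2 replicates).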

Chain of SOS1/KRAS WT (Q07889 564-1049): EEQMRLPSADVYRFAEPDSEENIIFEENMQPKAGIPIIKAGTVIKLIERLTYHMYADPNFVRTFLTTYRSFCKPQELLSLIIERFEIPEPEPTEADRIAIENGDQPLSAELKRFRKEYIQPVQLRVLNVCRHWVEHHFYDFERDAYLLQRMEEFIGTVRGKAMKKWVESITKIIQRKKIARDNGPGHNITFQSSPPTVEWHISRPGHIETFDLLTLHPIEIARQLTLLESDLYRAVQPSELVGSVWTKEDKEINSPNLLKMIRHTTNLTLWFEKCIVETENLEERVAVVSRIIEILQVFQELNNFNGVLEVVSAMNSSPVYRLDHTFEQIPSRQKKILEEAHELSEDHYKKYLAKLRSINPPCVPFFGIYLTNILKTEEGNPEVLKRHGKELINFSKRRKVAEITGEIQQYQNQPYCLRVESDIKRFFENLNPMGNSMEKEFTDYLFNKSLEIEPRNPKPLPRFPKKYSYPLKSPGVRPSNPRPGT

SOS1/KRAS WT HTRF Binding assay pIC50	Structure (SMILES)
7.75	COCC1(C)C(=O)N(C)c2cc3c(N[C@H](C)c4cccc(C(F)(F)C(C)(C)O)c4)nnc(C)c3cc21 (stereo partly drawn) [Compound 91, D8-[[(1R)-1-[3-(1,1-difluoro-2-hydroxy-2-methyl-propyl)phenyl]ethyl]amino]-3-(methoxymethyl)-1,3,5-trimethyl-pyrrolo[3,2-g]phthalazin-2-one]

Same assay, conditions: inhibition of His6-SOS1 (aa564-1049, 40 nM) binding to GST-KRAS-WT (aa1-188, 40 nM); at least two independent replicates; read-out: SOS1/KRAS WT HTRF Binding assay pIC50 (converted)

IC50 [nM]	Structure (SMILES)
8.13	Cc1nnc(N[C@H](C)c2cccc(C(F)(F)CO)c2F)c2cc3c(cc12)C1(CCOCC1)C(=O)N3C [Compound 89, 1,5-dimethyl-8-[[(1R)-1-[3-(1,1-difluoro-2-hydroxy-ethyl)-2-fluoro-phenyl]ethyl]amino]spiro[pyrrolo [2,3-g]phthalazine-3,4′-tetrahydropyran]-2-one]
9.77	COC1(C)C(=O)N(C)c2cc3c(N[C@H](C)c4cccc(C(F)(F)CO)c4C)nnc(C)c3cc21 (stereo partly shown) [Compound 92]
7.41	COC1(C)C(=O)N(C)c2cc3c(N[C@H](C)c4cccc(C(F)(F)CO)c4F)nnc(C)c3cc21 (stereo partly drawn) [Compound 93, 3-methoxy-1,3,5-trimethyl-8-[[(1R)-1-[3-(1,1-difluoro-2-hydroxy-ethyl)-2-fluoro-phenyl]ethyl]amino]pyrrolo[2,3-g]phthalazin-2-one]
8.91	COCC1(C)C(=O)N(C)c2cc3c(N[C@H](C)c4cccc(C(F)(F)CO)c4F)nnc(C)c3cc21 (stereo partly drawn) [Compound 94, 8-[[(1R)-1-[3-(1,1-difluoro-2-hydroxy-ethyl)-2-fluoro-phenyl]ethyl]amino]-3-(methoxymethyl)-1,3,5-trimethyl-pyrrolo[3,2-g]phthalazin-2-one]
7.41	Cc1nnc(N[C@H](C)c2cccc(C(F)(F)CO)c2)c2cc3c(cc12)N(C)C(=O)C3(C)C [Compound 95, 1,3,3,8-tetramethyl-5-[[(1R)-1-[3-(1,1-difluoro-2-hydroxy-ethyl)phenyl]ethyl]amino]pyrrolo [3,2-g]phthalazin-2-one]
13.2	Cc1c([C@@H](C)Nc2nnc(C)c3cc4c(cc23)C(C)(C)C(=O)N4C)cccc1C(F)(F)CO [Compound 97, 1,3,3,8-tetramethyl-5-[[(1R)-1-[3-(1,1-difluoro-2-hydroxy-ethyl)-2-methyl-phenyl]ethyl]amino]pyrrolo[3,2-g]phthalazin-2-one]
12	Cc1nnc(N[C@H](C)c2cccc(C(F)(F)C(C)(C)O)c2F)c2cc3c(cc12)N(C)C(=O)C3(C)C [Compound 98, 1,3,3,8-tetramethyl-5-[[(1R)-1-[3-(1,1-difluoro-2-hydroxy-2-methyl-propyl)-2-fluoro-phenyl]ethyl]amino]pyrrolo[3,2-g]phthalazin-2-one]
8.13	Cc1nnc(N[C@H](C)c2cccc(C(F)(F)CO)c2F)c2cc3c(cc12)N(C)C(=O)C3(C)C [Compound 99, 1,3,3,8-tetramethyl-5-[[(1R)-1-[3-(1,1-difluoro-2-hydroxy-ethyl)-2-fluoro-phenyl]ethyl]amino]pyrrolo[3,2-g]phthalazin-2-one]
10.7	COCC1(C)C(=O)N(C)c2cc3c(N[C@H](C)c4cccc(C(F)(F)CO)c4C)nnc(C)c3cc21 (stereo partly drawn) [Compound 105, 8-[[(1R)-1-[3-(1,1-difluoro-2-hydroxy-ethyl)-2-methyl-phenyl]ethyl]amino]-3-(methoxymethyl)-1,3,5-trimethyl-pyrrolo[3,2-g]phthalazin-2-one]

The next lines start with the compound.

Structure (SMILES)	IC50 [nM]
Cc1nnc(N[C@H](C)c2cccc(C(F)(F)CO)c2)c2cc3c(cc12)n(C)c(=O)n3C(C)(C)C [Compound 80, 3-tert-butyl-1,8-dimethyl-5-[[(1R)-1-[3-(1,1-difluoro-2-hydroxy-ethyl)phenyl]ethyl]amino]imidazo [4,5-g]phthalazin-2-one]	6.17
Cc1nnc(N[C@H](C)c2cccc(C(F)(F)C(C)(C)O)c2)c2cc3c(cc12)C(C)(C)C(=O)N3C(C)C [Compound 81, 1-isopropyl-3,3,5-trimethyl-8-[[(1R)-1-[3-(1,1-difluoro-2-hydroxy-2-methyl-propyl)phenyl]ethyl]amino]pyrrol o[2,3-g]phthalazin-2-one]	8.51
Cc1nnc(N[C@H](C)c2cccc(C(F)(F)CO)c2)c2cc3c(cc12)C(C)(C)C(=O)N3C(C)C [Compound 82, 1-isopropyl-3,3,5-trimethyl-8-[[(1R)-1-[3-(1,1-difluoro-2-hydroxy-ethyl)phenyl]ethyl]amino]pyrrolo [2,3-g]phthalazin-2-one]	9.33
Cc1nnc(N[C@H](C)c2cccc(C(F)(F)C(C)(C)O)c2)c2cc3c(cc12)n(C)c(=O)n3C1(C)CC1 [Compound 83, 1,8-dimethyl-3-(1-methylcyclopropyl)-5-[[(1R)-1-[3-(1,1-difluoro-2-hydroxy-2-methyl-propyl)phenyl]ethyl]amino]imidazo [4,5-g]phthalazin-2-one]	7.94
Cc1nnc(N[C@H](C)c2cccc(C(F)(F)C(C)(C)O)c2)c2cc3c(cc12)C1(CCOCC1)C(=O)N3C [Compound 84, 1,5-dimethyl-8-[[(1R)-1-[3-(1,1-difluoro-2-hydroxy-2-methyl-propyl)phenyl]ethyl]amino]spiro [pyrrolo[2,3-g]phthalazine-3,4′-tetrahydropyran]-2-one]	8.91
Cc1c([C@@H](C)Nc2nnc(C)c3cc4c(cc23)n(C(C)C)c(=O)n4C)cccc1C(F)(F)CO [Compound 85, 3-isopropyl-1,8-dimethyl-5-[[(1R)-1-[3-(1,1-difluoro-2-hydroxy-ethyl)-2-methyl-phenyl]ethyl]amino]imidazo[4,5-g]phthalazin-2-one]	8.32
COCC1(C)C(=O)N(C)c2cc3c(N[C@H](C)c4cccc(C(F)(F)C(C)(C)O)c4F)nnc(C)c3cc21 (stereo partly drawn) [Compound 86, D8-[[(1R)-1-[3-(1,1-difluoro-2-hydroxy-2-methyl-propyl)-2-fluoro-phenyl]ethyl]amino]-3-(methoxymethyl)-1,3,5-trimethyl-pyrrolo[3,2-g]phthalazin-2-one]	10.2
Cc1nnc(N[C@H](C)c2cccc(C(F)(F)C(C)(C)O)c2)c2cc3c(cc12)n(C)c(=O)n3C(C)C [Compound 87, 3-isopropyl-1,8-dimethyl-5-[[(1R)-1-[3-(1,1-difluoro-2-hydroxy-2-methyl-propyl)phenyl]ethyl]amino]imidazo [4,5-g]phthalazin-2-one]	8.51
Cc1nnc(N[C@H](C)c2cccc(C(F)(F)CO)c2)c2cc3c(cc12)C1(CCOCC1)C(=O)N3C [Compound 88, 1,5-dimethyl-8-[[(1R)-1-[3-(1,1-difluoro-2-hydroxy-ethyl)phenyl]ethyl]amino]spiro [pyrrolo[2,3-g]phthalazine-3,4′-tetrahydropyran]-2-one]	7.76
COC1(C)C(=O)N(C)c2cc3c(N[C@H](C)c4cccc(C(F)(F)C(C)(C)O)c4)nnc(C)c3cc21 (stereo partly drawn) [Compound 90, 3-methoxy-1,3,5-trimethyl-8-[[(1R)-1-[3-(1,1-difluoro-2-hydroxy-2-methyl-propyl)phenyl]ethyl]amino]pyrrolo [2,3-g]phthalazin-2-one]	10.7
Cc1nnc(N[C@H](C)c2cccc(C(F)(F)C(C)(C)O)c2)c2cc3c(cc12)N(C)C(=O)C3(C)C [Compound 96, 1,3,3,8-tetramethyl-5-[[(1R)-1-[3-(1,1-difluoro-2-hydroxy-2-methyl-propyl)phenyl]ethyl]amino]pyrrolo [3,2-g]phthalazin-2-one]	13.5
Cc1c([C@@H](C)Nc2nnc(C)c3cc4c(cc23)n(C(C)(C)C)c(=O)n4C)cccc1C(F)(F)CO [Compound 100, 3-tert-butyl-1,8-dimethyl-5-[[(1R)-1-[3-(1,1-difluoro-2-hydroxy-ethyl)-2-methyl-phenyl]ethyl]amino]imidazo[4,5-g]phthalazin-2-one]	10
COC1(C)C(=O)N(C)c2cc3c(N[C@H](C)c4cccc(C(F)(F)CO)c4)nnc(C)c3cc21 (stereo partly drawn) [Compound 101, 3-methoxy-1,3,5-trimethyl-8-[[(1R)-1-[3-(1,1-difluoro-2-hydroxy-ethyl)phenyl]ethyl]amino]pyrrolo [2,3-g]phthalazin-2-one]	10
COC1(C)C(=O)N(C)c2cc3c(N[C@H](C)c4cccc(C(F)(F)C(C)(C)O)c4C)nnc(C)c3cc21 (stereo partly drawn) [Compound 102, 3-methoxy-1,3,5-trimethyl-8-[[(1R)-1-[3-(1,1-difluoro-2-hydroxy-2-methyl-propyl)-2-methyl-phenyl]ethyl]amino]pyrrolo[2,3-g]phthalazin-2-one]	8.32
Cc1nnc(N[C@H](C)c2cccc(C(F)(F)C(C)(C)O)c2)c2cc3c(cc12)n(C)c(=O)n3C(C)(C)C [Compound 103, 3-tert-butyl-1,8-dimethyl-5-[[(1R)-1-[3-(1,1-difluoro-2-hydroxy-2-methyl-propyl)phenyl]ethyl]amino]imidazo [4,5-g]phthalazin-2-one]	7.94
Cc1c([C@@H](C)Nc2nnc(C)c3cc4c(cc23)N(C)C(=O)C42CCOCC2)cccc1C(F)(F)C(C)(C)O [Compound 104, 1,5-dimethyl-8-[[(1R)-1-[3-(1,1-difluoro-2-hydroxy-2-methyl-propyl)-2-methyl-phenyl]ethyl]amino]spiro[pyrrolo[2,3-g]phthalazine-3,4′-tetrahydropyran]-2-one]	24.5
COCC1(C)C(=O)N(C)c2cc3c(N[C@H](C)c4cccc(C(F)(F)CO)c4)nnc(C)c3cc21 (stereo partly drawn) [Compound 106, 8-[[(1R)-1-[3-(1,1-difluoro-2-hydroxy-ethyl)phenyl]ethyl]amino]-3-(methoxymethyl)-1,3,5-trimethyl-pyrrolo[3,2-g]phthalazin-2-one]	12
Cc1nnc(N[C@H](C)c2cc(F)cc(C(F)(F)CO)c2)c2cc3c(cc12)C(C)(C)C(=O)N3C [Compound 107, 1,3,3,5-tetramethyl-8-[[(1R)-1-[3-(1,1-difluoro-2-hydroxy-ethyl)-5-fluoro-phenyl]ethyl]amino]pyrrolo[2,3-g]phthalazin-2-one]	18.6
